Data set [1] in a line: Cytotoxicity against mouse mastocytoma P815B cells assessed as cell viability at 20 uM after overnight incubation by MTT assay. It is filed as cell-based. Particulars: for Activity: p815b, 20 µM; for viability at 20 µM: mastocytoma P815B cells, read-out: Activity. On the technique in general: Formazan colour is commonly taken as a measure of viable cells.
The target of data set [2] is Tryptophan 2,3-dioxygenase (Mus musculus) (UniProt P48776). As to the kind of experiment: Inhibition of mouse TDO expressed in mouse mastocytoma P815B cells using L-Trptophan as substrate at 20 uM after overnight by HPLC. It is filed as cell-based.
Data set [3] addresses T1, Indoleamine 2,3-dioxygenase 1 (Homo sapiens, UniProt P14902). The data set is described as follows: Uncompetitive inhibition of histidine-tagged human recombinant IDO expressed in bacterial strain BL21 AI using L-Trptophan as substrate measured at 490 nm wavelength after 6 min by colorimetric assay.
Target sequence in this assay (P14902 whole entry): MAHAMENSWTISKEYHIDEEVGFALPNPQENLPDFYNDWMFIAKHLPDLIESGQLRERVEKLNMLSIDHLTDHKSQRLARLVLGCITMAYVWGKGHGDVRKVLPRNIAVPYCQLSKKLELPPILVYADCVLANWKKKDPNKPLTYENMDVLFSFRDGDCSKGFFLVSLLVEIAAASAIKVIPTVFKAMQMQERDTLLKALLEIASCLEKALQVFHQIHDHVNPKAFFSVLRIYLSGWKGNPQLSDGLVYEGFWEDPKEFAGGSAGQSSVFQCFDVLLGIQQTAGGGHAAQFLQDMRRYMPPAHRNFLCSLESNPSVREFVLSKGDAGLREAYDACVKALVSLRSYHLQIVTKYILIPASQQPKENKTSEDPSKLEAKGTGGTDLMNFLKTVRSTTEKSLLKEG
The target in data set [4] is T1, Indoleamine 2,3-dioxygenase 1. As to the kind of experiment: Inhibition of histidine-tagged human recombinant IDO expressed in bacterial strain BL21 AI using L-Trptophan as substrate measured at 490 nm wavelength at 100 uM after 6 min by colorimetric assay.
Target sequence in this assay (P14902 whole entry, looked up): as the sequence (P14902 whole entry) above
The target is the same in data set [5]. As to the kind of experiment: Uncompetitive inhibition of histidine-tagged human recombinant IDO expressed in Escherichia coli using L-Trptophan as substrate assessed as hypochromic effect by UV analysis.
Target sequence in this assay (P14902 whole entry, looked up): as the sequence (P14902 whole entry) above
In data set [6] the target is Indoleamine 2,3-dioxygenase 1 (Mus musculus) (UniProt P28776). As to the kind of experiment: Inhibition of mouse IDO expressed in mouse mastocytoma P815B cells using L-Trptophan as substrate at 20 uM after overnight by HPLC. It is filed as cell-based.
In data set [7] the target is T1, Indoleamine 2,3-dioxygenase 1. As to the kind of experiment: Competitive inhibition of histidine-tagged human recombinant IDO expressed in bacterial strain BL21 AI using L-Trptophan as substrate measured at 490 nm wavelength after 6 min by colorimetric assay.
Target sequence in this assay (P14902 whole entry): as above

pIC50, pKi: −log10 of the molar value. Activity calls are given as the source filed them. The rule behind the calls is not given here.

Data on 14 molecules can be found in ChEMBL document CHEMBL1799908, “Discovery and preliminary SARs of keto-indoles as novel indoleamine 2,3-dioxygenase (IDO) inhibitors” (Eur J Med Chem, 2011).

Chain of Tryptophan 2,3-dioxygenase (Mus musculus) (P48776 whole entry): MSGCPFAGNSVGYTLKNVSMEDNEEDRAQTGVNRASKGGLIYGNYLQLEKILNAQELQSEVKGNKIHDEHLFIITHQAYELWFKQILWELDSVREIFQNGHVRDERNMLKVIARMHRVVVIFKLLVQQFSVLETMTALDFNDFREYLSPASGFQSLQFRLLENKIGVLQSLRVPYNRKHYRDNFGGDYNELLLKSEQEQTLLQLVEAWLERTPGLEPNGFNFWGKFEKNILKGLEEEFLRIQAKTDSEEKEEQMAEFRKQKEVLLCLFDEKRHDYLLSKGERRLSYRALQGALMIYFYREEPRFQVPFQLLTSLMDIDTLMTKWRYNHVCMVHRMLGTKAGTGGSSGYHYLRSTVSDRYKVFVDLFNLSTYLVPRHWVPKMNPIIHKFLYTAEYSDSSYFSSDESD
Chain of Indoleamine 2,3-dioxygenase 1 (Mus musculus) (P28776 whole entry, looked up): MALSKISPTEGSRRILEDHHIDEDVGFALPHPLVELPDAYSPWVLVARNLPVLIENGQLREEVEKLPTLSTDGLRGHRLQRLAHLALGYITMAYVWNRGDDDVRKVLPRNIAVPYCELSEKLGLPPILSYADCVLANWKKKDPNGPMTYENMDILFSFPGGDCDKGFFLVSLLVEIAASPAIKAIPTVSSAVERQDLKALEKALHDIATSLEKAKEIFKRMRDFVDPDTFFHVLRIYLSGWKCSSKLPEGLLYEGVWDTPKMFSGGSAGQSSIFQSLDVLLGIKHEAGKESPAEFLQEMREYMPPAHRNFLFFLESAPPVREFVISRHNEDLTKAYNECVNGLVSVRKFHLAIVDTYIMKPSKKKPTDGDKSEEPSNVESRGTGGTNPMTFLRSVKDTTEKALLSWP

As usually defined, the inhibition is the relative decrease from the control value, in per cent. Take `COc1ccc2[nH]c(C(=O)Cc3cccnc3)cc2c1`: the Activity result in data set [1] is reported as “Non-toxic”. For the same molecule, the inhibition entry in data set [2] is “inactive”.
On to `O=C(Nc1cccnc1)c1cc2ccccc2[nH]1`, for which, in data set [1], the viability at 20 µM stood at 75%. In addition, the inhibition entry in data set [2] is “inactive”.
What is called pKi is the negative decadic logarithm of the Ki, by convention in mol/L. On to `O=C(Cc1cccnc1)c1cc2ccccc2[nH]1`, for which the negative-log Ki (pKi) in data set [3] is 3.72. Besides, the Activity result in data set [1] is “Non-toxic”. Further, the inhibition in data set [4] was greater than 50%. Moreover, in data set [2], the inhibition entry was “inactive”. In addition, in data set [5], the outcome was Active.
On to `Cn1c(C(=O)Cc2cccnc2)cc2ccccc21`, for which the Activity result in data set [1] was “Non-toxic”. The inhibition entry in data set [2] was “inactive”.
The corresponding values for `O=C(Cc1cccnc1)c1cc2cc(F)ccc2[nH]1` are “Non-toxic” and “inactive”.
Taken in the same sequence, the figures for `Cc1ccc2[nH]c(C(=O)Cc3cccnc3)cc2c1` were “Non-toxic” and “inactive”.
In the case of `O=C(Cc1cccnc1)c1cc2cc(Cl)ccc2[nH]1`, the viability at 20 µM in data set [1] was 90%. In data set [2], the inhibition result is “inactive”.
Regarding `Cn1cc(C[C@H](N)C(=O)O)c2ccccc21` [(L)-1-METHYLTRYPTOPHAN], the Activity entry in data set [1] is on record as “Non-toxic”. In addition, in data set [2], the inhibition entry was “inactive”.
Regarding `O=C(Cc1cccnc1)c1cc2cc([N+](=O)[O-])ccc2[nH]1`, the viability at 20 µM in data set [1] came to 90%. In data set [2], the inhibition result was “inactive”.
On to `N#Cc1ccc(-n2nnc3ccccc32)cc1`, for which the inhibition in data set [4] is greater than 50%.
Take `O=C(Cc1cccnc1)c1cc2c(F)cccc2[nH]1`: the viability at 20 µM in data set [1] amounted to 80%. Besides, the inhibition result in data set [2] is “inactive”.
As to `OC(Cc1cccnc1)c1cc2ccccc2[nH]1` (configuration not stated), the viability at 20 µM in data set [1] worked out at 90%. Moreover, the inhibition entry in data set [2] is “inactive”.
The corresponding values for `c1cncc(CCc2cc3ccccc3[nH]2)c1` are 90% and “inactive”.
By pIC50 is commonly meant −log10 of the IC50, conventionally taken in molar units. Consider `Cn1c(C(=O)Cc2cccnc2)cc2cc(F)ccc21`, for which the inhibition entry in data set [6] and in data set [2] was “inactive” in each case. In addition, the viability at 20 µM in data set [1] turned out to be 95%. Also, the negative logarithm of the IC50 (pIC50) in data set [7] is 4.04.
